“Also recorded” adds a separate entry of the source.
Tests used:
Type in all cases: physicochemical
[1] = Physical and chemical stability on storage in opened packages (purity by UPLC, solid form by XRPD); details: for Chemical purity during storing: 40° C./75% RH and 60° C./75% RH; for Impurity content versus qualification threshold: throughout the stability investigation processes
Protocol: X-ray powder diffraction patterns in the present disclosure were acquired by a Bruker X-ray powder diffractometer. The parameters of the X-ray powder diffraction method of the present disclosure are as follows: • X-Ray: Cu, Kα • Kα1 (Å): 1.54060; Kα2 (Å): 1.54439 • Kα2/Kα1 intensity ratio: 0.50
(§1) The related substance in the present disclosure was detected by UPLC and the parameters are shown below.
Said “room temperature” is not a specific temperature, but a temperature range of 10-30° C. Said “open packaged” is putting the sample into a glass vial, covering the vial with aluminum foil, and punching 5-10 holes on the foil.
(§2) Form CSII of the present disclosure and the prior art amorphous form were weighed and stored under 25° C./60% RH, 40° C./75% RH and 60° C./75% RH conditions, in opened packages, respectively. The purity and solid form were determined by UPLC and XRPD. The results are listed in Table 3, and the overlaid XRPD patterns of Form CSII before and after storage for stability evaluation are shown in FIG. 4.
as §2, with “CSIII” for “CSII”, “10,” for “3,”, “9.” for “4.”
as §2, with “CSIV” for “CSII”, “C./60%” for “C./60% RH, 40° C./75%”, “40°” for “60°”, “16,” for “3,”, “15.” for “4.”

[2] = Stability at high temperature (80° C., 2 days, purity by UPLC); details: for Chemical purity (in words) / Purity change: 2 days; for Purity change: glass vial with cap
Protocol: as §1
Certain amounts of Form CSII of the present disclosure and the prior art amorphous form were weighted and stored at 80° C. for 2 days, and the purities of the solids before and after storage were determined by UPLC, the results are as shown in Table 4.
Certain amounts of Form CSIII of the present disclosure and the prior art amorphous form were weighted and stored at 80° C. for 2 days, and the purities of the solids before and after storage were determined by UPLC, the results are as shown in Table 11.
Certain amounts of Form CSIV of the present disclosure and the prior art amorphous form were stored at 80° C. for 2 days, and the purities of the solids before and after storage were determined by UPLC, the results are as shown in Table 17.

[3] = Light stability (Chinese Pharmacopoeia method, purity by UPLC); details: light not less than 1.2×10^6 lux-hr, near-UV not less than 200 W-hr/m^2; for Purity change: 1 week; for Chemical purity (in words): about 1 week
Text: as §1
(§3) Certain amounts of Form CSII of the present disclosure and the prior art amorphous form were weighted and stored for about 1 week, in accordance with the method of the Chinese Pharmacopoeia, under the condition that the total illumination of the light source was not less than 1.2×106 lux-hr and the energy of the near-ultraviolet lamp was not less than 200 W-hr/m^2, the purities of the solids before and after storage were measured by UPLC and the results are shown in Table 5.
as §3, with “CSIII” for “CSII”, “1.2×10^6” for “1.2×106”, “12.” for “5.”
as §3, with “CSIV” for “CSII”, “1.2×10^6” for “1.2×106”, “18.” for “5.”

[4] = Hygroscopicity by DVS (0% RH-95% RH-0% RH at 25° C.); details: for Weight gain relative to that of the prior art / Weight gain at 80% RH: 80% RH; for Weight gain at 80% RH: DVS; for Weight gain at 80% RH / Hygroscopicity class: 25° C.; for Crystalline state after the DVS test: XRPD before and after DVS; for Hygroscopicity class: weight gain at 80% RH
Protocol: DVS was measured via an SMS (Surface Measurement Systems Ltd.) intrinsic DVS instrument.
Parameters for DVS method are as follows: • Temperature: 25° C. • Gas and flow rate: nitrogen, 200 mL/min • RH range: 0% RH to 95% RH • ^1H NMR were collected from a Bruker Avance II DMX 400M HZ NMR spectrometer. 1-5 mg of sample was weighed and dissolved in 0.5 mL of deuterated dimethyl sulfoxide to obtain a solution with a concentration of 2-10 mg/mL.
Certain amounts of Form CSII of the present disclosure and the prior art amorphous form were sampled for hygroscopicity tests using DVS instrument. The weight change at each relative humidity was recorded during the cycle of 0% RH-95% RH-0% RH at 25° C.
Description and definition of hygroscopicity (general notice 9103 drug hygroscopicity test guidelines in 2020 edition of Chinese Pharmacopoeia, experimental condition: 25±1° C., 80±2% RH):
Certain amounts of Form CSIII of the present disclosure and the prior art amorphous form were sampled for hygroscopicity tests using DVS instrument. The weight change at each relative humidity was recorded during the cycle of 0% RH-95% RH-0% RH at 25° C.
Certain amounts of Form CSIV of the present disclosure and the prior art amorphous form were sampled for hygroscopicity tests using DVS instrument. The weight change at each relative humidity was recorded during the cycle of 0% RH-95% RH-0% RH at 25° C.

[5] = Grinding stability (manual grinding 5 minutes in a mortar, XRPD); details: ground manually 5 minutes in a mortar
Protocol: Form CSII was grounded manually for 5 minutes in a mortar. XRPD was tested before and after the grinding.
Form CSIII was grounded manually for 5 minutes in a mortar. XRPD was tested before and after the grinding.
Form CSIV was grounded manually for 5 minutes in a mortar. XRPD was tested before and after the grinding.

[6] = Stability of crystalline form in tablet formulation process (XRPD before and after); details: tablets per Table 7 and Table 8, XRPD
Protocol: According to the formulation and process in Table 7 and Table 8, the tablets were prepared with an appropriate amount of Form CSII of the present disclosure. XRPD was tested before and after formulation.
According to the formulation and process in Table 7 and Table 8, the tablets were prepared with an appropriate amount of Form CSIII of the present disclosure. XRPD was tested before and after formulation.
According to the formulation and process in Table 7 and Table 8, the tablets were prepared with an appropriate amount of Form CSIV of the present disclosure. XRPD was tested before and after formulation.

[7] = 25° C./60% RH, 6 months, open package
[8] = 40° C./75% RH, 6 months, open package
[9] = 60° C./75% RH, 1 month, open package
[10] = Initial, ICH Q3A (R2) thresholds

Chemical purity during storage ([1]; 25° C./60% RH) | Time for which the crystalline state doesn't change / form is stable ([1]; 25° C./60% RH) | Purity [1, 7] [%] | Purity change [1, 7] | The number of the purities exceeding the qualification thresholds [1, 7] | Time for which the crystalline state doesn't change / form is stable ([1]; 40° C./75% RH) | Chemical purity during storing [1] | Purity [1, 8] [%] | Purity change [1, 8] | The number of the purities exceeding the qualification thresholds [1, 8] | Time for which the crystalline state doesn't change ([1]; 60° C./75% RH) | Solid form and purity after storage ([1]; 60° C./75% RH, 1 month) | Purity [1, 9] [%] | Purity change [1, 9] [%] | The number of the purities exceeding the qualification thresholds [1, 9] | Purity ([1]; Initial) [%] | The number of the purities exceeding the qualification thresholds [1, 10] | Time for which chemical purity remains substantially unchanged [2] | Chemical purity (in words) [2] | SMILES | Impurity content versus qualification threshold [1] | other results
above 99.8% | at least 6 months | 99.89 | +0.03% | 0 | at least 6 months | above 99.8% | 99.87 | +0.01% | 0 | at least 1 month | remained basically unchanged | 99.82 | −0.04 | 0 | 99.86 | 0 | at least 2 days | basically remained unchanged | C=CC(=O)N1CCC[C@@H](n2c(=O)n(-c3ccc(Oc4ccccc4)cc3)c3c(N)nccc32)C1 [Form CSII, (R)-1-(1-acryloylpiperidin-3-yl)-4-amino-3-(4-phenoxyphenyl)-1H-imidazo[4,5-c] pyridin-2(3H)-one] | did not exceed the qualification thresholds; also recorded: did not exceed the qualificated threshold | Purity change [2]: +0.01%; Purity change [3]: −0.02%; Chemical purity (in words) [3]: basically remained unchanged; Time for which there is no change in the purity [3]: at least 1 week; Weight gain relative to that of the prior art [4]: ⅙; Weight gain at 80% RH [4]: 0.60%; Crystalline state after the DVS test [4]: remained unchanged; Hygroscopicity class [4]: slightly hygroscopic; Crystalline state after grinding [5]: remains unchanged; Crystalline state after formulation process (mixed with excipients, tableted) [6]: remained unchanged; also recorded: did not change
above 99.9% | at least 6 months | 99.93 | +0.02% | 0 | at least 6 months | above 99.8% | 99.91 | 0% | 0 | at least 1 month | remained basically unchanged | 99.86 | −0.05 | 0 | 99.91 | 0 | at least 2 days | basically remained unchanged | C=CC(=O)N1CCC[C@@H](n2c(=O)n(-c3ccc(Oc4ccccc4)cc3)c3c(N)nccc32)C1 [Form CSIII, (R)-1-(1-acryloylpiperidin-3-yl)-4-amino-3-(4-phenoxyphenyl)-1H-imidazo[4,5-c] pyridin-2(3H)-one] | did not exceed the qualification thresholds; also recorded: did not exceed the qualificated threshold | Solid form [1, 7]: Form CSIII; Solid form [1, 8]: Form CSIII; Solid form [1, 9]: Form CSIII; Solid form ([1]; Initial): Form CSIII; Purity change [2]: +0.04%; Purity change [3]: +0.02%; Chemical purity (in words) [3]: basically remained unchanged; Time for which there is no change in the purity [3]: at least 1 week; Weight gain relative to that of the prior art [4]: ⅙; Weight gain at 80% RH [4]: 0.66%; Crystalline state after the DVS test [4]: remained unchanged; Hygroscopicity class [4]: slightly hygroscopic; Crystalline state after grinding [5]: remains unchanged; Crystalline state after formulation process (mixed with excipients, tableted) [6]: remained unchanged; also recorded: did not change
